Test results published in patent US20230049952A1, “METHODS AND COMPOUNDS FOR RESTORING MUTANT P53 FUNCTION” (PMV Pharmaceuticals, Inc., priority 2020, published 2023).

Target: p53 Y220C in MT373 tumors (Homo sapiens, UniProt P04637, Y220C)
Experiment: MT373 syngeneic sarcoma model: mutant, WT and total p53 ELISA in tumors
Assay type: in vivo, mouse
Conditions: for Mutant p53 Protein, Percent Reduction Relative to Vehicle Control / Total p53 Protein, Percent Reduction Relative to Vehicle Control / WT p53 Protein, Fold Change over Vehicle Control: MT373 tumors
Description: Tumor Lysate Preparation: Lysis buffer was added to tumor samples and homogenized using a TissueLyser LT. Homogenized samples were spun by centrifuge for 30 minutes at 20817×g, and the supernatant transferred to a 1.5-mL tube. Protein samples were quantified, aliquoted into 96-well plates, and stored at −80° C.
Tumor lysates were diluted in blocking buffer such that the required protein amount is added to the plate in a 100 μL volume (WT p53 7.5 μg; mutant p53 2.5 μg; Total p53 2.5 μg). […] Plates were washed, and the reaction was developed using TMB for approximately 5 minutes and quenched with 0.16 M sulfuric acid. […] A background measurement was subtracted from the treated samples' signals. The signals were normalized to the respective vehicle controls.

Compound: CCn1c(C#CCNc2ccccc2)cc2cc(CNC3CCN(C)CC3)ccc21 [Compound 1, 1-Anilino-3-{1-ethyl-5-[(1-methyl-4-piperidylamino)methyl]-1H-indol-2-yl}-2-propyne]
- Mutant p53 Protein, Percent Reduction Relative to Vehicle Control (75 mg/kg BIDx1 PO, 8 h): 53.91%
- Total p53 Protein, Percent Reduction Relative to Vehicle Control (75 mg/kg BIDx1 PO, 8 h): 35.06%
- WT p53 Protein, Fold Change over Vehicle Control (75 mg/kg BIDx1 PO, 8 h): 1.25 fold
- Mutant p53 Protein, Percent Reduction Relative to Vehicle Control (75 mg/kg BIDx1 PO, 24 h): 79.50%
- Total p53 Protein, Percent Reduction Relative to Vehicle Control (75 mg/kg BIDx1 PO, 24 h): 72.38%
- WT p53 Protein, Fold Change over Vehicle Control (75 mg/kg BIDx1 PO, 24 h): 1.13 fold
- Mutant p53 Protein, Percent Reduction Relative to Vehicle Control (75 mg/kg BIDx1 PO, 48 h): 67.23%
- Total p53 Protein, Percent Reduction Relative to Vehicle Control (75 mg/kg BIDx1 PO, 48 h): 63.03%
- WT p53 Protein, Fold Change over Vehicle Control (75 mg/kg BIDx1 PO, 48 h): 1.02 fold
- Mutant p53 Protein, Percent Reduction Relative to Vehicle Control (75 mg/kg BIDx1 PO, 72 h): 16.87%
- Total p53 Protein, Percent Reduction Relative to Vehicle Control (75 mg/kg BIDx1 PO, 72 h): 19.65%
- WT p53 Protein, Fold Change over Vehicle Control (75 mg/kg BIDx1 PO, 72 h): 1.11 fold
- Mutant p53 Protein, Percent Reduction Relative to Vehicle Control (75 mg/kg BIDx1 PO, 98 h): 0.00%
- Total p53 Protein, Percent Reduction Relative to Vehicle Control (75 mg/kg BIDx1 PO, 98 h): 0.00%
- WT p53 Protein, Fold Change over Vehicle Control (75 mg/kg BIDx1 PO, 98 h): 1.13 fold
- Mutant p53 Protein, Percent Reduction Relative to Vehicle Control (75 mg/kg BIDx1 PO, […]): 45.58%
- Total p53 Protein, Percent Reduction Relative to Vehicle Control (75 mg/kg BIDx1 PO, […]): 44.67%
- WT p53 Protein, Fold Change over Vehicle Control (75 mg/kg BIDx1 PO, […]): 0.88 fold
- increase in WT conformation p53 (75 mg/kg BID×1 PO, 8 h): 1.25 fold
- Mutant p53 Protein, Percent Reduction Relative to Vehicle Control (150 mg/kg BIDx1 PO, 8 h): 82.30%
- Total p53 Protein, Percent Reduction Relative to Vehicle Control (150 mg/kg BIDx1 PO, 8 h): 56.64%
- WT p53 Protein, Fold Change over Vehicle Control (150 mg/kg BIDx1 PO, 8 h): 1.45 fold
- Mutant p53 Protein, Percent Reduction Relative to Vehicle Control (150 mg/kg BIDx1 PO, 24 h): 93.74%
- Total p53 Protein, Percent Reduction Relative to Vehicle Control (150 mg/kg BIDx1 PO, 24 h): 81.75%
- WT p53 Protein, Fold Change over Vehicle Control (150 mg/kg BIDx1 PO, 24 h): 1.08 fold
- Mutant p53 Protein, Percent Reduction Relative to Vehicle Control (150 mg/kg BIDx1 PO, 48 h): 81.64%
- Total p53 Protein, Percent Reduction Relative to Vehicle Control (150 mg/kg BIDx1 PO, 48 h): 81.46%
- WT p53 Protein, Fold Change over Vehicle Control (150 mg/kg BIDx1 PO, 48 h): 0.94 fold
- Mutant p53 Protein, Percent Reduction Relative to Vehicle Control (150 mg/kg BIDx1 PO, 72 h): 58.64%
- Total p53 Protein, Percent Reduction Relative to Vehicle Control (150 mg/kg BIDx1 PO, 72 h): 60.43%
- WT p53 Protein, Fold Change over Vehicle Control (150 mg/kg BIDx1 PO, 72 h): 0.86 fold
- Mutant p53 Protein, Percent Reduction Relative to Vehicle Control (150 mg/kg BIDx1 PO, 98 h): 0.00%
- Total p53 Protein, Percent Reduction Relative to Vehicle Control (150 mg/kg BIDx1 PO, 98 h): 0.60%
- WT p53 Protein, Fold Change over Vehicle Control (150 mg/kg BIDx1 PO, 98 h): 0.95 fold
- Mutant p53 Protein, Percent Reduction Relative to Vehicle Control (150 mg/kg BIDx1 PO, […]): 34.14%
- Total p53 Protein, Percent Reduction Relative to Vehicle Control (150 mg/kg BIDx1 PO, […]): 32.40%
- WT p53 Protein, Fold Change over Vehicle Control (150 mg/kg BIDx1 PO, […]): 0.86 fold
- increase in WT conformation p53 (150 mg/kg BID×1 PO, 8 h): 1.45 fold
